Where a name gives a salt, the structure may show the parent alone.
Tested on: p27 levels in LNCaP-S14 cells
Experiment: p27 immunofluorescence screening assay in LNCaP-S14 cells; further: test concentration or dose not given here
Details: cell line not given; for % positive: p27-positive cells; for Z score: Table 1, standard deviations from plate mean
[1] = Table 1, compounds showing SMIP activity in the secondary screen

Compound	% positive [1] [%]	Z score	% positive ([…]) [%]
O=C(OCn1ncc(Cl)c(Cl)c1=O)c1ccc(C(F)(F)F)cc1 [(4,5-dichloro-6-oxo-pyridazin-1-yl)methyl-4-(trifluoromethyl)benzoate]	33.92	21.2964	
O=c1c(C(F)(F)F)cccn1CCc1nc(-c2ccccc2)cs1 [1-[2-(4-phenyl-1,3-thiazol-2-yl)ethyl]-3-(trifluoromethyl)pyridin-2(1H)-one]	10.24	4.1344	
CC(C)COCC(CN(Cc1ccccc1)c1ccccc1)N1CCCC1 (centres unmarked) [Bepridil hydrochloride, reference compound]	8.54	2.9020	
CC1CN(C(=O)c2cc(-c3ccc(Cl)cc3)cs2)CC(C)O1 (centres unmarked) [4-[[(4-(4-chlorophenyl)thiophen-2-yl]carbonyl]-2,6-dimethylmorpholine]	23.93	14.0559	
CCCCCCSc1nnc(N)s1 [5-hexylsulfanyl-1,3,4-thiadiazol-2-amine]	38.52	24.6282	
CC[C@@H](C(=O)[C@@H](C)[C@@H](O)[C@H](C)CCc1ccc(C)c(O)c1C(=O)O)[C@H]1O[C@](CC)([C@H]2CC[C@](O)(CC)[C@H](C)O2)C[C@@H]1C [Lasalocid sodium, reference compound]	45.21	29.4743	
Cc1cc(Br)ccc1NC(=O)CCCc1c[nH]c2ccccc12 [N-(4-bromo-2-methyl-phenyl)-4-(1H-indol-3-yl)butanamide]	30.52	18.8304	
CCC(=O)N(Cc1cccc(Cl)c1)c1ccc2[nH]c(C(C)(C)C)cc2c1 [N-(2-tert-butyl-(1H)-indol-5-yl)-N-(3-chlorobenzyl)propanamide]	33.19	20.7674	
Cc1[nH]cnc1-c1ccc(C(F)(F)F)cc1 [5-methyl-4-(4-(trifluoromethyl)phenyl)-(1H)-imidazole]	7.89	2.4371	
O=c1cc(-c2ccc(O)c(O)c2)oc2cc(O)cc(O)c12 [Luteolin, reference compound]	19.15	10.5904	
Oligomycin A [Oligomycin A (mix of A, B, C), reference compound]	26.65	16.0298	
CC[C@@]1(O)C(=O)OCc2c1cc1n(c2=O)Cc2cc3ccccc3nc2-1 [Camptothecin, reference compound]	37.17	23.6514	
Nc1ncn([C@@H]2O[C@H](CO)[C@@H](O)[C@H]2O)c(=O)n1 [5-Azacytidine, reference compound]	10.87	4.5963	
COc1ccc(S(=O)(=O)Nc2cccc3cc(C(=O)NCc4ccc(Cl)cc4)[nH]c23)cc1 [N-(4-chlorobenzyl)-7-[((4-methoxyphenyl)sulfonyl)amino]-(1H)-indole-2-carboxamide]	11.30	4.9019	
O=C(OCn1ncc(Cl)c(Cl)c1=O)c1cccc(C(F)(F)F)c1 [(4,5-dichloro-6-oxopyridazin-1(6H)-yl)methyl-3-(trifluoromethyl)benzoate]	8.67	3.0023	
C[n+]1cc2c3c(ccc2c2ccc4cc5c(cc4c21)OCO5)OCO3 [Sanguinarine nitrate, reference compound]		11.4629	20.35
OC(c1cc(C(F)(F)F)nc2c(C(F)(F)F)cccc12)C1CCCCN1 (centres unmarked) [Mefloquine, reference compound]	17.66	9.5116	
CN(C)c1ccc(O)c2c1C[C@H]1C[C@H]3[C@H](N(C)C)C(O)=C(C(N)=O)C(=O)[C@@]3(O)C(O)=C1C2=O [Minocycline hydrochloride, reference compound]	46.17	30.1696	
C1CCC(C(CC2CCCCN2)C2CCCCC2)CC1.O=C(O)/C=C\C(=O)O (centres unmarked) [Perhexilline maleate, reference compound]		−0.0837	4.42

Source: patent US20090054312A1, “SMIPs: Small molecule inhibitors of p27 depletion in cancers and other proliferative diseases” (priority 2007, published 2009)
